The text below walks through data of patent publication US20250179059A1 (The Regents of the University of California, priority 2021, published 2025).

Where two headings read alike, the source gives them in different places.

As usually defined, the GI50 is the concentration that inhibits growth by half. As usually defined, the IC50 is the concentration at which inhibition is half-maximal.

Assay [1] has as its system human SKM-1 acute myeloid leukemia cells. The assay is described as follows: SKM-1 antiproliferation cell-based assay (ATPlite). As to conditions: Homo sapiens. The gist of the method: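 Log-phase cells in RPMI 1640/15% FBS were seeded at 34722 cells/mL and exposed for 4 days to nine-concentration DMSO serial dilutions in triplicate. Viability was read as ATP luminescence (ATPlite 1step), and IC50 values came from variable-slope non-linear regression.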
Background: In ATP-based viability assays light output follows the ATP content of the culture.

The target in assay [2] is T1, human BRD4 bromodomain II (Homo sapiens, UniProt O60885).
T1 construct: human BRD4 bromodomain II [based on Genbank NM_058243, residues 349-460]; host or cells: E. coli
Description: Bromodomain binding assay (AlphaScreen), BRD4 BDII. An outline of the steps: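 AlphaScreen competition: His6-BRD4 BDI (aa 44-170) or BDII (aa 349-460) vs biotin-H4(1-21) K5/K8/K12/K16Ac peptide; Ni-chelate acceptor/streptavidin donor beads. HEPES pH 7.5, NaCl, CHAPS, BSA, 1% DMSO; RT. 10-pt 3-fold titration, % peptide binding fitted → IC50.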
For orientation: Alpha assays give light when donor and acceptor beads are brought close together.

The mark [3] stands for this setting: SKM-1, 96 h, SKM-1 antiproliferation assay, 4 days, Table C2.
Where [4] appears, read: AlphaScreen assay, Table C2, read-out: BRD4 BDII IC50.
Setting [5] is: SKM-1, SKM-1 antiproliferation assay.
Setting [6] is: BRD4 BDII AlphaScreen assay, read-out: BRD4 BD2 IC50.

In assay [1] (setting [3]), `CC(C)N1CCN(c2cc(-c3cc(F)cc(-c4ccc(-n5ccn(C)c5=O)c(Cl)c4)c3O)cn3ccnc23)CC1` [Example 670, 1-(3-chloro-5′-fluoro-2′-hydroxy-3′-(8-(4-isopropylpiperazin-1-yl)imidazo[1,2-a]pyridin-6-yl)-[1,1′-biphenyl]-4-yl)-3-methyl-1H-imidazol-2(3H)-one] displayed a GI50 of 0.3 to 30 nM. In addition, the IC50 in assay [2] (setting [4]) is 0.01 to 1 nM.

`COCCCOc1cc(-c2cc(F)cc(-c3ccc(-n4ccn(C)c4=O)c(Cl)c3)c2O)cc(N2CCN[C@H](C)C2)n1` [Example 715, (R)-1-(3-chloro-5′-fluoro-2′-hydroxy-3′-(2-(3-methoxypropoxy)-6-(3-methylpiperazin-1-yl)pyridin-4-yl)-[1,1′-biphenyl]-4-yl)-3-methyl-1H-imidazol-2(3H)-one] registered a GI50 in assay [1] (setting [3]) of 0.3 to 30 nM. In assay [2] (setting [4]), the IC50 lay in the range of 0.01 to 1 nM.

`Cn1ccn(-c2ccc(-c3cc(F)cc(-c4ccnc(N5CC6CCNC6C5)c4)c3O)cc2Cl)c1=O` (stereo not drawn) [Example 655, 1-(3-chloro-5′-fluoro-3′-(2-(hexahydropyrrolo[3,4-b]pyrrol-5(1H)-yl)pyridin-4-yl)-2′-hydroxy-[1,1′-biphenyl]-4-yl)-3-methyl-1H-imidazol-2(3H)-one]: in assay [1] (setting [3]), the GI50 fell in the range of 0.3 to 30 nM. Further, in assay [2] (setting [4]), the IC50 lay within 0.01 to 1 nM.

In assay [1] (setting [3]), `COc1ncc(-c2cc(F)cc(-c3ccc(-n4ccn(C)c4=O)c(Cl)c3)c2O)cc1N1CC(C)(O)C2(CC2)C1` (stereo not drawn) [Example 833, 1-(3-chloro-5′-fluoro-2′-hydroxy-3′-(5-(7-hydroxy-7-methyl-5-azaspiro[2.4]heptan-5-yl)-6-methoxypyridin-3-yl)-[1,1′-biphenyl]-4-yl)-3-methyl-1H-imidazol-2(3H)-one] registered a GI50 of 30 to 300 nM. In addition, the half-inhibitory concentration (IC50) in assay [2] (setting [4]) is 1 to 10 nM.

`CC1CC(=O)N(c2ccc(-c3cccc(-c4ccnc(N5CCNCC5)c4)c3O)cc2Cl)C1` (stereo not drawn) [Example 340, 1-(3-chloro-2′-hydroxy-3′-(2-(piperazin-1-yl)pyridin-4-yl)-[1,1′-biphenyl]-4-yl)-4-methylpyrrolidin-2-one]: the concentration for 50% growth inhibition (GI50) in assay [1] (setting [3]) was 300 to 3000 nM. The IC50 in assay [2] (setting [4]) is over 100 nM.

`COc1ncc(-c2cc(F)cc(-c3ccc(-n4ccn(C)c4=O)c(Cl)c3)c2O)cc1N1CCN(C(C)(C)CO)CC1` [Example 960, 1-(3-chloro-5′-fluoro-2′-hydroxy-3′-(5-(4-(1-hydroxy-2-methylpropan-2-yl)piperazin-1-yl)-6-methoxypyridin-3-yl)-[1,1′-biphenyl]-4-yl)-3-methyl-1H-imidazol-2(3H)-one] registered a GI50 in assay [1] (setting [5]) of 0.3 to 30 nM. Further, in assay [2] (setting [6]), the IC50 fell in the range of 1 to 10 nM.

The compound `Cn1ccn(-c2ccc(-c3cc(F)cc(-c4ccnc(N5CCC6(CCCN6)C5)c4)c3O)cc2Cl)c1=O` (stereo not drawn) [Example 636, 1-(3′-(2-(1,7-diazaspiro[4.4]nonan-7-yl)pyridin-4-yl)-3-chloro-5′-fluoro-2′-hydroxy-[1,1′-biphenyl]-4-yl)-3-methyl-1H-imidazol-2(3H)-one] yielded a GI50 in assay [1] (setting [3]) of 0.3 to 30 nM. In assay [2] (setting [4]), the IC50 is 0.01 to 1 nM.

In assay [1] (setting [3]), `[2H]C([2H])([2H])n1ccn(-c2ccc(-c3cc(F)cc(-c4ccnc(N5CCC[C@H](NC)C5)c4)c3O)cc2Cl)c1=O` [Example 456, (S)-1-(3-chloro-5′-fluoro-2′-hydroxy-3′-(2-(3-(methylamrno)piperidin-1-yl)pyridin-4-yl)-[1,1′-biphenyl]-4-yl)-3-deuteromethyl-1H-imidazol-2(3H)-one] showed a GI50 of 0.3 to 30 nM. Moreover, in assay [2] (setting [4]), the IC50 was 0.01 to 1 nM.

`Cn1ccn(-c2ccc(-c3cc(F)cc(-c4ccnc(N5CCN(CCO)CC5)c4)c3O)cc2Cl)c1=O` [Example 471, 1-(3-chloro-5′-fluoro-2′-hydroxy-3′-(2-(4-(2-hydroxyethyl)piperazin-1-yl)pyridin-4-yl)-[1,1′-biphenyl]-4-yl)-3-methyl-1H-imidazol-2(3H)-one]: the GI50 in assay [1] (setting [3]) lay in the range of 0.3 to 30 nM. For the same compound, the IC50 in assay [2] (setting [4]) is 0.01 to 1 nM.

Consider `CC(=O)Nc1cc(-c2cc(F)cc(-c3ccc(-n4ccn(C)c4=O)c(Cl)c3)c2O)cc(N2CCN[C@H](C)C2)n1` [Example 544], for which, in assay [1] (setting [3]), the GI50 was 0.3 to 30 nM. Moreover, the IC50 in assay [2] (setting [4]) lay in the range of 0.01 to 1 nM.

`Cn1ccn(-c2ccc(-c3cc(F)cc(-c4ccnc(N5CCN(CC(C)(C)C)CC5)c4)c3O)cc2Cl)c1=O` [Example 651, 1-(3-chloro-5′-fluoro-2′-hydroxy-3′-(2-(4-neopentylpiperazin-1-yl)pyridin-4-yl)-[1,1′-biphenyl]-4-yl)-3-methyl-1H-imidazol-2(3H)-one] showed a GI50 in assay [1] (setting [3]) of 30 to 300 nM. In addition, the IC50 in assay [2] (setting [4]) was 0.01 to 1 nM.

The compound `CC1CN(c2cc(-c3cccc(-c4ccc(N5CCCC5=O)c(F)c4)c3O)ccn2)CC(C)N1` (stereo not drawn) [Example 266, 1-(3′-(2-(3,5-dimethylpiperazin-1-yl)pyridin-4-yl)-3-fluoro-2′-hydroxy-[1,1′-biphenyl]-4-yl)pyrrolidin-2-one] displayed a GI50 in assay [1] (setting [3]) of 300 to 3000 nM. Moreover, the IC50 in assay [2] (setting [4]) was 1 to 10 nM.

Compound `CN1CCC2CN(c3cc(-c4cc(F)cc(-c5ccc(-n6ccn(C)c6=O)c(Cl)c5)c4O)ccn3)CC21` (stereo not drawn) [Example 658, 1-(3-chloro-5′-fluoro-2′-hydroxy-3′-(2-(1-methylhexahydropyrrolo[3,4-b]pyrrol-5(1H)-yl)pyridin-4-yl)-[1,1′-biphenyl]-4-yl)-3-methyl-1H-imidazol-2(3H)-one] yielded a GI50 in assay [1] (setting [3]) of 0.3 to 30 nM. Also, the IC50 in assay [2] (setting [4]) lay within 0.01 to 1 nM.

`CN1CCN(c2ccc(-c3cc(F)cc(-c4ccnc(NCCN)c4)c3O)cc2Cl)C1=O` [Example 363, 1-(3′-(2-((2-aminoethyl)amino)pyridin-4-yl)-3-chloro-5′-fluoro-2′-hydroxy-[1,1′-biphenyl]-4-yl)-3-methylimidazolidin-2-one] gave a 50% growth inhibitory concentration (GI50) in assay [1] (setting [3]) of 300 to 3000 nM. Further, in assay [2] (setting [4]), the IC50 is 10 to 100 nM.

For `CC(=O)Nc1ccc(-c2cccc(-c3cccc(N4CCN[C@H](C)C4)c3)c2O)cc1F` [Example 193, (R)-N-(3-fluoro-2′-hydroxy-3″-(3-methylpiperazin-1-yl)-[1,1′:3′,1″-terphenyl]-4-yl)acetamide], the GI50 in assay [1] (setting [3]) was 300 to 3000 nM. Also, the IC50 in assay [2] (setting [4]) was 1 to 10 nM.

Take `CC(C)N1CCC12CCN(c1cc(-c3cc(F)cc(-c4ccc(-n5ccn(C)c5=O)c(Cl)c4)c3O)cnc1N)C2` (stereo not drawn) [Example 954, 1-(3′-(6-amino-5-(1-isopropyl-1,6-diazaspiro[3.4]octan-6-yl)pyridin-3-yl)-3-chloro-5′-fluoro-2′-hydroxy-[1,1′-biphenyl]-4-yl)-3-methyl-1H-imidazol-2(3H)-one]: the GI50 in assay [1] (setting [5]) fell in the range of 0.3 to 30 nM. Besides, the IC50 in assay [2] (setting [6]) fell in the range of 1 to 10 nM.

In turn, `Cn1cc(-c2cc(F)cc(-c3ccc(-n4ccn(C)c4=O)c(Cl)c3)c2O)cc(N2CCC(C)(O)C2)c1=O` (stereo not drawn) [Example 725, 5-(3′-chloro-5-fluoro-2-hydroxy-4′-(3-methyl-2-oxo-2,3-dihydro-1H-imidazol-1-yl)-[1,1′-biphenyl]-3-yl)-3-(3-hydroxy-3-methylpyrrolidin-1-yl)-1-methylpyridin-2(1H)-one] registered a GI50 in assay [1] (setting [3]) of 30 to 300 nM. The IC50 in assay [2] (setting [4]) was in the range of 1 to 10 nM.

Compound `Cn1ccn(-c2ccc(-c3cc(F)cc(-c4ccnc(N5CC6CCC(C5)C6(C)O)c4)c3O)cc2Cl)c1=O` (stereo not drawn) [Example 785, 1-(3-chloro-5′-fluoro-2′-hydroxy-3′-(2-(8-hydroxy-8-methyl-3-azabicyclo[3.2.1]octan-3-yl)pyridin-4-yl)-[1,1′-biphenyl]-4-yl)-3-methyl-1H-imidazol-2(3H)-one] came in with a GI50 in assay [1] (setting [3]) of 30 to 300 nM. In addition, the IC50 in assay [2] (setting [4]) was 1 to 10 nM.
